Source: PubChem BioAssay AID248 (DTP/NCI, 2004)
Several values for one entry are separate records, joined by “and”; a condition that tells them apart may be missing. Identical values can stand only once. Toxic doses and inconclusive results are not listed. No stated cut-off is given here; in the data, active means T/C of 150% or more; inactive means T/C below 125%.

Test system: L1210 leukemia ip in BDF1 mice, survival T/C
Assay: NCI In Vivo Anticancer Drug Screen. Data for tumor model L1210 Leukemia (intraperitoneal) in B6D2F1 (BDF1) mice
Conditions: endpoint: mean survival time, higher = longer survival
Method in brief: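 Value reflects the ratio of survival in compound-treated mice to survival in vehicle-treated controls, with both groups carrying the same transplanted tumor.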

[1] = dose: 50.0 mg/kg/injection, schedule: Q01DX009 (ip), vehicle: Klucel (hydroxypropylcellulose) (HPC)
[2] = dose: 100.0 mg/kg/injection, schedule: Q01DX001 (ip), vehicle: saline
[3] = dose: 200.0 mg/kg/injection, schedule: Q01DX001 (ip), vehicle: saline
[4] = dose: 400.0 mg/kg/injection, schedule: Q01DX001 (ip), vehicle: saline
[5] = dose: 100.0 mg/kg/injection, schedule: Q04DX003 (ip), vehicle: Klucel (hydroxypropylcellulose) (HPC)
[6] = dose: 200.0 mg/kg/injection, schedule: Q04DX003 (ip), vehicle: Klucel (hydroxypropylcellulose) (HPC)
[7] = dose: 400.0 mg/kg/injection, schedule: Q04DX003 (ip), vehicle: Klucel (hydroxypropylcellulose) (HPC)
[8] = dose: 25.0 mg/kg/injection, schedule: Q01DX009 (ip), vehicle: saline with Tween-80
[9] = dose: 50.0 mg/kg/injection, schedule: Q01DX009 (ip), vehicle: saline with Tween-80
[10] = dose: 100.0 mg/kg/injection, schedule: Q01DX009 (ip), vehicle: saline with Tween-80
[11] = dose: 100.0 mg/kg/injection, schedule: Q04DX003 (ip), vehicle: saline with Tween-80
[12] = dose: 200.0 mg/kg/injection, schedule: Q01DX009 (ip), vehicle: saline with Tween-80
[13] = dose: 200.0 mg/kg/injection, schedule: Q04DX003 (ip), vehicle: saline with Tween-80
[14] = dose: 400.0 mg/kg/injection, schedule: Q01DX009 (ip), vehicle: saline with Tween-80
[15] = dose: 100.0 mg/kg/injection, schedule: Q04DX003 (ip), vehicle: saline
[16] = dose: 200.0 mg/kg/injection, schedule: Q04DX003 (ip), vehicle: saline
[17] = dose: 400.0 mg/kg/injection, schedule: Q04DX003 (ip), vehicle: saline
[18] = dose: 100.0 mg/kg/injection, schedule: Q01DX009 (ip), vehicle: Klucel (hydroxypropylcellulose) (HPC)
[19] = dose: 200.0 mg/kg/injection, schedule: Q01DX009 (ip), vehicle: Klucel (hydroxypropylcellulose) (HPC)
[20] = dose: 100.0 mg/kg/injection, schedule: Q01DX009 (ip), vehicle: saline
[21] = dose: 200.0 mg/kg/injection, schedule: Q01DX009 (ip), vehicle: saline
[22] = dose: 50.0 mg/kg/injection, schedule: Q01DX001 (ip), vehicle: carboxymethylcellulose (CMC)
[23] = dose: 100.0 mg/kg/injection, schedule: Q01DX001 (ip), vehicle: carboxymethylcellulose (CMC)
[24] = dose: 200.0 mg/kg/injection, schedule: Q01DX001 (ip), vehicle: carboxymethylcellulose (CMC)
[25] = dose: 400.0 mg/kg/injection, schedule: Q01DX001 (ip), vehicle: carboxymethylcellulose (CMC)

Measured: T/C

C=C=[CH][Sn]([c]1ccccc1)([c]1ccccc1)[c]1ccccc1
inactive: dose: 12.5 mg/kg/injection, schedule: Q01DX009 (ip), vehicle: Klucel (hydroxypropylcellulose) (HPC) 100 % of control | dose: 12.5 mg/kg/injection, schedule: Q04DX003 (ip), vehicle: Klucel (hydroxypropylcellulose) (HPC) 99 % of control | dose: 25.0 mg/kg/injection, schedule: Q01DX009 (ip), vehicle: Klucel (hydroxypropylcellulose) (HPC) 102 % of control | dose: 25.0 mg/kg/injection, schedule: Q04DX003 (ip), vehicle: Klucel (hydroxypropylcellulose) (HPC) 106 % of control | [1] 89 % of control | dose: 50.0 mg/kg/injection, schedule: Q04DX003 (ip), vehicle: Klucel (hydroxypropylcellulose) (HPC) 99 % of control

O=C1CC(=O)N(c2ccccc2)N1
inactive: [2] 96 % of control | [3] 98 % of control | [4] 98 % of control

CCCCCCCCCCCCCCCOc1ccc(C)cc1
inactive: [5] 93 % of control | [6] 101 % of control | [7] 95 % of control

COC(OC)c1cc(=O)[nH]c(NC(=O)C(Cl)Cl)n1
inactive: [8] 90 % of control | [9] 107 % of control | [10] 106 % of control | [11] 98 % of control | [12] 89 % of control | [13] 104 % of control | [14] 93 % of control | dose: 400.0 mg/kg/injection, schedule: Q04DX003 (ip), vehicle: saline with Tween-80 94 % of control

O=C(O)/C=C/C(=O)Nc1ccc(Br)c(Cl)c1
inactive: [10] 86 % of control

CCN(CC[n+]1ccccc1)c1ccccc1 (tested in a mixture with another compound)
inactive: dose: 50.0 mg/kg/injection, schedule: Q01DX001 (ip), vehicle: saline 103 % of control

O=[N+]([O-])c1ccc(O)c(I)c1
inactive: [2] 97 % of control | [15] 100 % of control | [3] 98 % of control | [16] 105 % of control | [4] 95 % of control | [17] 102 % of control

CCC(=O)Nc1ccc(Cl)cc1
inactive: [18] 87 % of control | [5] 95 % of control | [19] 93 % of control | [6] 95 % of control | dose: 400.0 mg/kg/injection, schedule: Q01DX009 (ip), vehicle: Klucel (hydroxypropylcellulose) (HPC) 104 % of control | [7] 95 % of control

CCOC(=O)NCC(CCN(C)C)(CN(C)C)c1cccc2ccccc12 (configuration not stated)
inactive: dose: 50.0 mg/kg/injection, schedule: Q04DX002 (ip), vehicle: Klucel (hydroxypropylcellulose) (HPC) 102 % of control | dose: 100.0 mg/kg/injection, schedule: Q04DX002 (ip), vehicle: Klucel (hydroxypropylcellulose) (HPC) 106 % of control

COC(=O)CC1(CC(=O)OC)C(=O)N(c2ccccc2)c2ccccc21
inactive: dose: 100.0 mg/kg/injection, schedule: Q01DX001 (ip), vehicle: Klucel (hydroxypropylcellulose) (HPC) 90 % of control | dose: 200.0 mg/kg/injection, schedule: Q01DX001 (ip), vehicle: Klucel (hydroxypropylcellulose) (HPC) 93 % of control | dose: 400.0 mg/kg/injection, schedule: Q01DX001 (ip), vehicle: Klucel (hydroxypropylcellulose) (HPC) 93 % of control

CC1(C)OCC2SC(n3cnc4c(N)ncnc43)C(OS(C)(=O)=O)C2O1 (configuration not stated)
inactive: dose: 100.0 mg/kg/injection, schedule: Q01DX005 (ip), vehicle: saline 97 % of control | dose: 200.0 mg/kg/injection, schedule: Q01DX005 (ip), vehicle: saline 90 % of control

COc1cccc2ccccc12
inactive: [11] 96 % of control | [13] 94 % of control

CC(C(=O)N1c2ccccc2Sc2ccccc21)[N+](C)(C)C (configuration not stated)
inactive: dose: 12.5 mg/kg/injection, schedule: Q04DX003 (ip), vehicle: saline 112 % of control | dose: 25.0 mg/kg/injection, schedule: Q01DX009 (ip), vehicle: saline 100 % of control | dose: 25.0 mg/kg/injection, schedule: Q04DX003 (ip), vehicle: saline 98 % of control | dose: 50.0 mg/kg/injection, schedule: Q01DX009 (ip), vehicle: saline 102 % of control | dose: 50.0 mg/kg/injection, schedule: Q04DX003 (ip), vehicle: saline 104 % of control | [15] 104 % of control

O=C(O)CCC(=O)c1cccc2ccccc12
inactive: [20] 96 % of control | [15] 105 % of control | [21] 112 % of control | [16] 94 % of control | [17] 103 % of control

CC(CO)(c1c[nH]c2ccccc12)c1c[nH]c2ccccc12
inactive: [22] 102 % of control | [23] 96 % of control | [24] 96 % of control | [25] 96 % of control

CC(=O)NCC(C)C
inactive: [20] 101 % of control | [21] 108 % of control | dose: 400.0 mg/kg/injection, schedule: Q01DX009 (ip), vehicle: saline 105 % of control

[Cl][Hg][CH2]C1COC([CH2][Hg][Cl])CO1 (configuration not stated)
inactive: dose: 25.0 mg/kg/injection, schedule: Q01DX001 (ip), vehicle: carboxymethylcellulose (CMC) 90 % of control | [22] 92 % of control | [23] 95 % of control

O=C1NC(=O)C2CC(Br)C(Br)CC12 (configuration not stated)
inactive: dose: 2.5 mg/kg/injection, schedule: Q01DX009 (ip), vehicle: Klucel (hydroxypropylcellulose) (HPC) 100 % of control | dose: 2.5 mg/kg/injection, schedule: Q04DX003 (ip), vehicle: Klucel (hydroxypropylcellulose) (HPC) 98 % of control | dose: 5.0 mg/kg/injection, schedule: Q01DX009 (ip), vehicle: Klucel (hydroxypropylcellulose) (HPC) 100 % of control | dose: 5.0 mg/kg/injection, schedule: Q04DX003 (ip), vehicle: Klucel (hydroxypropylcellulose) (HPC) 100 % of control | dose: 10.0 mg/kg/injection, schedule: Q01DX009 (ip), vehicle: Klucel (hydroxypropylcellulose) (HPC) 100 % of control | dose: 10.0 mg/kg/injection, schedule: Q04DX003 (ip), vehicle: Klucel (hydroxypropylcellulose) (HPC) 98 % of control and 100 % of control

C=CCC(Cc1ccccc1)NCC1CC1 (configuration not stated)
inactive: dose: 6.25 mg/kg/injection, schedule: Q04DX002 (ip), vehicle: saline with Tween-80 114 % of control | dose: 12.5 mg/kg/injection, schedule: Q04DX002 (ip), vehicle: saline with Tween-80 104 % of control | dose: 25.0 mg/kg/injection, schedule: Q04DX002 (ip), vehicle: saline with Tween-80 111 % of control

O=C(Sc1ccccc1)N(c1ccccc1)c1ccccc1
inactive: dose: 100.0 mg/kg/injection, schedule: Q04DX002 (ip), vehicle: gum acacia 117 % of control | dose: 200.0 mg/kg/injection, schedule: Q04DX002 (ip), vehicle: gum acacia 101 % of control | dose: 400.0 mg/kg/injection, schedule: Q04DX002 (ip), vehicle: gum acacia 96 % of control

Nc1ccccc1CCc1ccccc1N
inactive: [10] 98 % of control | [12] 98 % of control | [14] 94 % of control

O=C(Nc1cccc(Cl)c1)Nc1ccccc1C(F)(F)F
inactive: [22] 104 % of control | [23] 106 % of control | [24] 106 % of control | [25] 101 % of control

BrC(Br)c1cnc2ccccc2n1
inactive: [1] 107 % of control | [18] 92 % of control | [19] 101 % of control

O=C(O)c1ccccc1S(=O)(=O)c1ccccc1
inactive: [10] 109 % of control | [12] 101 % of control | [14] 103 % of control

S=C=Nc1ccc(Cl)c(Cl)c1
inactive: dose: 12.5 mg/kg/injection, schedule: Q01DX009 (ip), vehicle: saline with Tween-80 104 % of control | [8] 94 % of control | [9] 102 % of control
